From ChEMBL document CHEMBL3867426, “Synthesis and biological evaluation of 6-fluoro-3-phenyl-7-piperazinyl quinolone derivatives as potential topoisomerase I inhibitors” (Eur J Med Chem, 2016)
pIC50: −log10 of the molar value. Calls of active or inactive are those of the source. The calls are words filed in the database; no cut-off is given here.

Tests used:
cells [1] = details: Homo sapiens, A549, 48 h
[2] = Antiproliferative activity against human BGC823 cells after 48 hrs by MTT assay; format: functional, cell-based; details: BGC-823, 48 h
cells [3] = details: Homo sapiens, HeLa, 48 h
cells [4] = details: Homo sapiens, HepG2, 48 h
[5] = Solubility of the compound in Tris/glycine/SDS buffer at pH 7.9; format: physicochemical
[6] = biological target: T1, DNA topoisomerase 1 (Homo sapiens) (UniProt P11387); experiment: Inhibition of DNA topoisomerase 1 (unknown origin)-mediated relaxation of supercoiled pBR322 plasmid DNA at 100 uM after 30 mins by agarose gel electrophoresis
T1 sequence (whole entry): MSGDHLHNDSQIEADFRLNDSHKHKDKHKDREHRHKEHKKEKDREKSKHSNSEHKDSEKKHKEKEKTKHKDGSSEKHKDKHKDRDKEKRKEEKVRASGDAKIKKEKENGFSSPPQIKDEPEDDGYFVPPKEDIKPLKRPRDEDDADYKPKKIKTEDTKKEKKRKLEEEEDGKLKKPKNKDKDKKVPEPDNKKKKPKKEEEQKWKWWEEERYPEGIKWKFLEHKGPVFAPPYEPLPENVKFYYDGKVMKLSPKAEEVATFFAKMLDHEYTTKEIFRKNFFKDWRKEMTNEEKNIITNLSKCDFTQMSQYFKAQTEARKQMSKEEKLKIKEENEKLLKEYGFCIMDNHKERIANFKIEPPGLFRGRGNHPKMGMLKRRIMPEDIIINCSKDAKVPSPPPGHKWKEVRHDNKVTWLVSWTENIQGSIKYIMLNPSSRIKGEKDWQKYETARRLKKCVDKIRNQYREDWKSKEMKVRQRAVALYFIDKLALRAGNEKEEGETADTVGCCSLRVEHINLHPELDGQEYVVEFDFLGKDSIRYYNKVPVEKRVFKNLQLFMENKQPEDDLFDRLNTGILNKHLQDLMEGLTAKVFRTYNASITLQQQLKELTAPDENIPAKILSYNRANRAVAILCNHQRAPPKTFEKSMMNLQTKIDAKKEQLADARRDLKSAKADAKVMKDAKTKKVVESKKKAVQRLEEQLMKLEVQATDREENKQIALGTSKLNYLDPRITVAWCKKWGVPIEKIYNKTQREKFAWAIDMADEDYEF

[7] = Cell cycle arrest in human A549 cells assessed as accumulation at S phase at 0.5 uM after 24 hrs by propidium iodide staining based flow cytometric analysis (reference value: 26.40%); format: functional
[8] = Cell cycle arrest in human A549 cells assessed as accumulation at G2 phase at 0.5 uM after 24 hrs by propidium iodide staining based flow cytometric analysis (reference value: 22.51%); format: functional
[9] = Cell cycle arrest in human A549 cells assessed as accumulation at G1 phase at 0.5 uM after 24 hrs by propidium iodide staining based flow cytometric analysis (reference value: 46.14%); format: functional
[10] = Solubility of the compound in pH 7.9 Tris/glycine/SDS buffer at 50 uM; format: physicochemical; details: pH 7.9, 50 µM
[11] = Antitumor activity against human A549 cells xenografted in BALB/c nude mouse assessed as reduction in tumor volume at 20 mg/kg, iv administered once every 3 days measured on day 18 post dose; format: functional
[12] = Antitumor activity against human A549 cells xenografted in BALB/c nude mouse assessed as reduction in tumor volume at 20 mg/kg, iv administered once every 3 days measured on day 23 post dose; format: functional
Mus musculus [13] = experiment: Toxicity in BALB/c nude mouse xenografted with human A549 cells assessed as change in body weight at 20 mg/kg, iv administered once every 3 days for 23 days measured twice per week during compound dosing; format: organism-based; details: in vivo
Mus musculus [14] = experiment: Toxicity in BALB/c nude mouse xenografted with human A549 cells assessed as mortality at 20 mg/kg, iv administered once every 3 days for 23 days; format: organism-based; details: in vivo
[15] = Antitumor activity against human A549 cells xenografted in BALB/c nude mouse assessed as reduction in tumor volume at 20 mg/kg, iv administered once every 3 days measured on day 9 post dose; format: functional
[16] = Antitumor activity against human A549 cells xenografted in BALB/c nude mouse assessed as reduction in tumor volume at 20 mg/kg, iv administered once every 3 days measured on day 12 post dose; format: functional
[17] = Antitumor activity against human A549 cells xenografted in BALB/c nude mouse assessed as reduction in tumor volume at 20 mg/kg, iv administered once every 3 days measured on day 3 post dose; format: functional
[18] = Antitumor activity against human A549 cells xenografted in BALB/c nude mouse assessed as reduction in tumor volume at 20 mg/kg, iv administered once every 3 days measured on day 21 post dose; format: functional
[19] = Antitumor activity against human A549 cells xenografted in BALB/c nude mouse assessed as reduction in tumor volume at 20 mg/kg, iv administered once every 3 days measured on day 6 post dose; format: functional
[20] = Antitumor activity against human A549 cells xenografted in BALB/c nude mouse assessed as reduction in tumor volume at 20 mg/kg, iv administered once every 3 days measured on day 15 post dose; format: functional
[21] = Antitumor activity against human A549 cells xenografted in BALB/c nude mouse assessed as tumor growth inhibition at 20 mg/kg, iv administered once every 3 days for 23 days relative to control; format: functional; details: read-out: TGI

Row | SMILES | pIC50 (cells [1]) | pIC50 [2] | pIC50 (cells [3]) | pIC50 (cells [4]) | solubility [5] [µM] | inhibition [6] | also measured
1 | CCn1cc(-c2cccc(F)c2)c(=O)c2cc(F)c(N3CCNCC3)cc21 | 5.51 | 4.56 | 4.66 | 4.56 | – | – | –
2 | CCn1cc(-c2ccc(Cl)cc2)c(=O)c2cc(F)c(N3CCNCC3)cc21 | 5.90 | 4.84 | 4.81 | 4.62 | – | – | –
3 | O=c1c(-c2ccccc2)cn(C2CC2)c2cc(N3CCNCC3)c(F)cc12 | 6.30 | 5.10 | 5.00 | 5.06 | > 400 | Active | –
4 | O=c1c(-c2ccc(F)cc2)cn(C2CC2)c2cc(N3CCNCC3)c(F)cc12 | 5.77 | 4.82 | 4.83 | 4.98 | > 400 | Active | –
5 | O=c1c(-c2ccc(Cl)cc2)cn(C2CC2)c2cc(N3CCNCC3)c(F)cc12 | 6.19 | 4.89 | 5.03 | 5.10 | > 400 | Active | –
6 | CCn1cc(-c2ccc(C#N)cc2)c(=O)c2cc(F)c(N3CCNCC3)cc21 | 5.96 | 4.73 | 4.83 | 4.90 | – | – | –
7 | CCn1cc(-c2ccc(F)cc2)c(=O)c2cc(F)c(N3CCNCC3)cc21 | 4.94 | 4.16 | 4.22 | 4.25 | – | – | –
8 | CC[C@@]1(O)C(=O)OCc2c1cc1n(c2=O)Cc2cc3ccccc3nc2-1 [CAMPTOTHECIN] | 6.34 | 5.90 | 5.85 | 5.82 | – | – | Activity [7]: 48.1%; Activity [8]: 11.3%; Activity [9]: 33.2%
9 | CCn1cc(-c2nc3ccc([N+](=O)[O-])cc3o2)c(=O)c2cc(F)c(N3CCNC(C)C3)c(F)c21 (configuration not stated) | 5.83 | 5.56 | 5.53 | 5.58 | – | – | solubility [10]: Insoluble
10 | CC[C@@]1(O)C(=O)OCc2c1cc1n(c2=O)Cc2cc3cc(O)ccc3nc2-1 [HYDROXYCAMPTOTHECIN] | – | – | – | – | – | – | T/C [11]: 23.92%; T/C [12]: 21.68%; Activity (Mus musculus [13]): Toxic; Activity (Mus musculus [14]): Toxic; T/C [15]: 54.55%; T/C [16]: 29.44%; T/C [17]: 91.99%; T/C [18]: 20%; T/C [19]: 68.37%; T/C [20]: 27.97%
11 | COc1cccc(-c2cn(C3CC3)c3cc(N4CCN(C)CC4)c(F)cc3c2=O)c1 | 5.95 | 4.68 | 4.83 | 4.60 | – | – | –
12 | O=c1c(-c2cccc(Cl)c2)cn(C2CC2)c2cc(N3CCNCC3)c(F)cc12 | 6.96 | 6.21 | 6.05 | 6.07 | > 400 | Active | T/C [11]: 62.96%; Activity [7]: 31.2%; T/C [12]: 74.32%; Activity (Mus musculus [13]): Non-Toxic; Activity [8]: 17.7%; Activity [9]: 44%; Activity (Mus musculus [14]): Non-Toxic; T/C [15]: 85.54%; T/C [16]: 58.03%; T/C [17]: 87.18%; inhibition in vivo at 20 mg/kg [21]: 29.2%; T/C [18]: 73.07%; T/C [19]: 95.42%; T/C [20]: 76.4%
13 | CCn1cc(-c2ccccc2)c(=O)c2cc(F)c(N3CCNCC3)cc21 | 4.96 | 4.12 | 4.45 | 4.52 | – | – | –
14 | COc1ccc(-c2cn(C3CC3)c3cc(N4CCNCC4)c(F)cc3c2=O)cc1 | 5.73 | 4.72 | 4.78 | 4.68 | > 400 | Active | –
15 | CCn1cc(-c2cccc(OC)c2)c(=O)c2cc(F)c(N3CCNCC3)cc21 | 6.10 | 4.83 | 4.91 | 4.89 | – | – | –
16 | COc1cccc(-c2cn(C3CC3)c3cc(N4CCNCC4)c(F)cc3c2=O)c1 | 6.92 | 6.16 | 6.04 | 6.04 | > 400 | Active | T/C [11]: 68.69%; Activity [7]: 32.2%; T/C [12]: 64.72%; Activity (Mus musculus [13]): Non-Toxic; Activity [8]: 11.8%; Activity [9]: 48.2%; Activity (Mus musculus [14]): Non-Toxic; T/C [15]: 118.67%; T/C [16]: 85.88%; T/C [17]: 140.57%; inhibition in vivo at 20 mg/kg [21]: 42.8%; T/C [18]: 71.52%; T/C [19]: 114.41%; T/C [20]: 73.12%
17 | CCn1cc(-c2cccc(Cl)c2)c(=O)c2cc(F)c(N3CCNCC3)cc21 | 6.11 | 4.74 | 4.79 | 4.82 | – | – | –
18 | CCn1cc(-c2ccc(OC)cc2)c(=O)c2cc(F)c(N3CCNCC3)cc21 | 4.93 | 4.34 | 4.16 | 4.24 | – | – | –
19 | O=c1c(-c2cccc(F)c2)cn(C2CC2)c2cc(N3CCNCC3)c(F)cc12 | 5.96 | 4.92 | 5.04 | 5.13 | > 400 | Active | –
20 | CN1CCN(c2cc3c(cc2F)c(=O)c(-c2cccc(Cl)c2)cn3C2CC2)CC1 | 5.87 | 4.70 | 4.80 | 4.58 | – | – | –
